Data on four compounds can be found in patent publication US4826973A, “Delta form of aztreonam and preparation thereof” (priority 1985, dated 1989).

Series [1] can be described thus: Physical and processing (bulk) properties of crystalline forms. The following applies: TABLE II, crystalline forms of aztreonam. In kind it is physicochemical.
The conditions of series [2]: as described for Ser. No. 282,636; cited from earlier work.
The nature of series [3]: Intrinsic dissolution rate of crystalline forms. In kind it is physicochemical. To be noted: TABLE II, crystalline forms of aztreonam.
For series [4] the following is noted: compared with α-form or simple salts of the compound; storage prior to conversion to β-form.

Regarding `C[C@H]1[C@H](NC(=O)/C(=N\OC(C)(C)C(=O)O)c2csc(N)n2)C(=O)N1S(=O)(=O)O` [β-Form, [3S-[3α(Z),4β]]-3-[[(2-amino-4-thiazolyl)-[(1-carboxy-1-methylethoxy)imino]acetyl]amino]-4-methyl-2-oxo-1-azetidinesulfonic acid], in series [1], the Density entry was “high”, the Flowability entry is given as “good” and the “Surface Area” value is “low”. Moreover, the “Hygroscopicity (background, earlier application)” value in series [2] is reported as “substantially non-hygroscopic”. Also, in series [3], the “Intrinsic Dissolution Rate” value is on record as “fast”.
With `C[C@H]1[C@H](NC(=O)/C(=N\OC(C)(C)C(=O)O)c2csc(N)n2)C(=O)N1S(=O)(=O)O` [γ-Form], in series [1], the Density result is recorded as “low”, the Flowability entry is listed as “poor” and the “Surface Area” value was “high”. In addition, the “Intrinsic Dissolution Rate” value in series [3] is recorded as “fast”.
On to `C[C@H]1[C@H](NC(=O)/C(=N\OC(C)(C)C(=O)O)c2csc(N)n2)C(=O)N1S(=O)(=O)O` [δ-Form, [3S-[3α(Z),4β]]-3-[[(2-amino-4-thiazolyl)[(1-carboxy-1-methylethoxy)imino]acetyl]amino]-4-methyl-2-oxo-1-azetidinesulfonic acid], for which the Shelf life entry in series [4] is “greater than that of the α-form, or for that matter simple salts of the compound”. In series [1], the Density entry is “high”, the Flowability entry is reported as “good” and the “Surface Area” value is listed as “low”. Also, the “Intrinsic Dissolution Rate” value in series [3] is recorded as “fast”.
In the case of `C[C@H]1[C@H](NC(=O)/C(=N\OC(C)(C)C(=O)O)c2csc(N)n2)C(=O)N1S(=O)(=O)O` [α-Form, [3S-[3α(Z)4β]]-3-[[(2-amino-4-thiazolyl)[(1-carboxy-1-methylethoxy)imino]acetyl]amino]-4-methyl-2-oxo-1-azetidinesulfonic acid], in series [1], the Density result was “low”, the Flowability result is reported as “poor” and the “Surface Area” value is “high”. Moreover, the “Intrinsic Dissolution Rate” value in series [3] is given as “slow”.
